Reference: patent US20240343704A1, “HALO-SUBSTITUTED AMINO PYRIDINE COMPOUNDS AS INHIBITORS OF THE HAEMATOPOIETIC PROGENITOR KINASE 1 (HPK1)” (priority 2021, published 2024)

Columns and labels:
[1] = target: T1, Recombinant (1-346) HPK1 (h) (Homo sapiens, UniProt Q92918); experiment: HPK1 Human STE Kinase Enzymatic Radiometric Assay; assay type: biochemical; details: read-out: HPK1 IC50 nM Range*
T1 construct: Recombinant (1-346) HPK1 (h) is incubated with 8 mM MOPS pH 7.0
T1 sequence (Q92918 1-346): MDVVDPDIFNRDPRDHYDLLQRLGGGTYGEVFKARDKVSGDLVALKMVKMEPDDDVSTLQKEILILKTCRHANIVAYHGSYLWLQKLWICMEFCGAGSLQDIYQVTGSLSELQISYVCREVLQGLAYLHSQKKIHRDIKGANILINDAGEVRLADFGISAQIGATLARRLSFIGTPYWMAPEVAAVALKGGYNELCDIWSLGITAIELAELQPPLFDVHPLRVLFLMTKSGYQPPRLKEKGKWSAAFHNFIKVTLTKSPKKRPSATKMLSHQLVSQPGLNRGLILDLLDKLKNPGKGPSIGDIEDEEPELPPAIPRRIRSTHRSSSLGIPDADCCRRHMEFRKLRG
Description: A stock solution of 10 mM of test compound is prepared in DMSO. The compound plate was prepared by 3-fold and 9-point serial dilutions. […] The reaction is initiated by The addition of the Mg/ATP mix. After incubation for 40 minutes at RT, the reaction is stopped by the addition of phosphoric acid to a concentration of 0.5%.

Lck (h) = Lck (h) (Homo sapiens, UniProt P06239); experiment: Lck Human  Kinase Enzymatic Radiometric Assay; assay type: biochemical; details: read-out: Lck IC50 nM Range*
Lck (h), sequence (P06239 whole entry): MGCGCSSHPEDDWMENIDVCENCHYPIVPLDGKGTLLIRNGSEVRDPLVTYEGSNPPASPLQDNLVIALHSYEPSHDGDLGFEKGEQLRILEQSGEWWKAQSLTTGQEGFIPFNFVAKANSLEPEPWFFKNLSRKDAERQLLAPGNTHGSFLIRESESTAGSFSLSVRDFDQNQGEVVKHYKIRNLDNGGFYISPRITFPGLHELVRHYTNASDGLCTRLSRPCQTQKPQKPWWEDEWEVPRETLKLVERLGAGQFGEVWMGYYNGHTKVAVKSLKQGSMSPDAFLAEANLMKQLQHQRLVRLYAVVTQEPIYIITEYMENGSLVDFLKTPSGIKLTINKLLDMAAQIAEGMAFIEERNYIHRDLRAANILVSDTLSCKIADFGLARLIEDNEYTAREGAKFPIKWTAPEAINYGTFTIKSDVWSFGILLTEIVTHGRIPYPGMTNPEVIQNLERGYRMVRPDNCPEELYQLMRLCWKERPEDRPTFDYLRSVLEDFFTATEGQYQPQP
Method in brief: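 Substrate 33P-incorporation measured by scintillation counting after spotting on P30 filtermat and phosphoric acid washes. Human Lck reacted 40 min at RT in 50 mM Tris pH 7.5 with 10 mM MgAcetate, [gamma-33P]-ATP, 250 uM Cdc2 peptide, 0.1 mM EGTA and 0.1 mM Na3VO4.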

Row | IC50 [1] | IC50 (Lck (h)) | Compound
1 | 0.1 to 10 nM | > 1000 nM | CC(C)N1CCN(c2ccc(-c3cc(-c4ccc5c(=O)[nH]cnc5c4)c(N)nc3F)cc2)CC1 [I-362, 7-(2-amino-6-fluoro-5-(4-(4-isopropylpiperazin-1-yl)phenyl)pyridin-3-yl)quinazolin-4(3H)-one]
2 | 11 to 100 nM | > 1000 nM | CC(C)N1CCN(c2ccc(-c3cc(-c4ccc5c(=O)[nH]ncc5c4)c(N)nc3F)cc2)CC1 [I-363, 6-(2-amino-6-fluoro-5-(4-(4-isopropylpiperazin-1-yl)phenyl)pyridin-3-yl)phthalazin-1(2H)-one]
3 | 0.1 to 10 nM | > 1000 nM | Nc1nc(F)c(-c2ccc(C3CCOCC3)c([C@@H]3CCCN3)c2)cc1-c1cc(F)c2c(c1)CCNC2=O [I-369, (S)-6-(2-amino-6-fluoro-5-(3-(pyrrolidin-2-yl)-4-(tetrahydro-2H-pyran-4-yl)phenyl)pyridin-3-yl)-8-fluoro-3,4-dihydroisoquinolin-1(2H)-one]
4 | 0.1 to 10 nM | > 1000 nM | Nc1nc(F)c(-c2ccc(C3CCOCC3)c([C@@H]3CCCN3)c2)cc1-c1ccc2c(=O)[nH]ccc2c1 [I-370, (S)-6-(2-amino-6-fluoro-5-(3-(pyrrolidin-2-yl)-4-(tetrahydro-2H-pyran-4-yl)phenyl)pyridin-3-y)isoquinolin-1(2H)-one]
5 | 0.1 to 10 nM | 101 to 1000 nM | CC(C)N1CCN(c2ccc(-c3cc(-c4cc(F)c5c(=O)[nH]ccc5c4)c(N)nc3F)cc2)CC1 [I-372, 6-(2-amino-6-fluoro-5-(4-(4-isopropylpiperazin-1-yl)phenyl)pyridin-3-yl)-8-fluoroisoquinolin-1(2H)-one]
6 | 0.1 to 10 nM | > 1000 nM | Nc1nc(F)c(-c2ccc(N3CCN(CC4CC4)CC3)cc2)cc1-c1cc(F)c2c(=O)[nH]ccc2c1 [I-375, 6-(2-amino-5-(4-(4-(cyclopropylmethyl)piper-azin-1-yl)phenyl)-6-fluoropyridin-3-yl)-8-fluoroisoquinolin-1(2H)-one]
7 | 0.1 to 10 nM | > 1000 nM | Nc1nc(F)c(-c2ccc(N3CCN(CC4CC4)CC3)cc2)cc1-c1cc2cc[nH]c(=O)c2cc1F [I-376, 6-(2-amino-5-(4-(4-(cyclopropylmethyl)piper-azin-1-yl)phenyl)-6-fluoropyridin-3-yl)-7-fluoroisoquinolin-1(2H)-one]
8 | 101 to 1000 nM | > 1000 nM | Cc1[nH]c(=O)c2ccc(-c3cc(-c4ccc(N5CCN(C(C)C)CC5)cc4)c(F)nc3N)cc2c1F [I-381, 6-(2-amino-6-fluoro-5-(4-(4-isopropylpiperazin-1-yl)phenyl)pyridin-3-yl)-4-fluoro-3-methylisoquinolin-1(2H)-one]
9 | 0.1 to 10 nM | 0.1 to 10 nM | CC(C)N1CCN(c2ccc(-c3cc(-c4cc(F)c5c(c4)CCNC5=O)c(N)nc3F)cc2F)CC1 [I-386, 6-(2-amino-6-fluoro-5-(3-fluoro-4-(4-isopropylpiperazin-1-yl)phenyl)pyridin-3-yl)-8-fluoro-3,4-dihydroisoquinolin-1(2H)-one]
10 | 0.1 to 10 nM | > 1000 nM | Nc1nc(F)c(-c2ccc(N3CCN(CCC4CC4)CC3)cc2)cc1-c1ccc2c(=O)[nH]ccc2c1 [I-389, 6-(2-amino-5-(4-(4-(2-cyclopropylethyl)piperazin-1-yl)phenyl)-6-fluoropyridin-3-yl)isoquinolin-1(2H)-one]
11 | 0.1 to 10 nM | 101 to 1000 nM | C[C@@H](C1CC1)N1CCN(c2ccc(-c3cc(-c4cc(F)c5c(=O)[nH]ccc5c4)c(N)nc3F)cc2)CC1 [I-393, (S)-6-(2-amino-5-(4-(4-(1-cyclopropylethyl)piperazin-1-yl)phenyl)-6-fluoropyridin-3-yl)-8-fluoroisoquinolin-1(2H)-one]
12 | 0.1 to 10 nM | 101 to 1000 nM | CCN1CCN(c2ccc(-c3cc(-c4cc(F)c5c(=O)[nH]ccc5c4)c(N)nc3F)cc2)CC1 [I-394, 6-(2-amino-5-(4-(4-ethylpiperazin-1-yl)phenyl)-6-fluoropyridin-3-yl)-8-fluoroisoquinolin-1(2H)-one]
13 | 0.1 to 10 nM | 101 to 1000 nM | CC(C)N1CCN(c2ccc(-c3cc(-c4cc5c(cn4)C(=O)NCC5)c(N)nc3F)cc2)CC1 [I-398, 6-(2-amino-6-fluoro-5-(4-(4-isopropylpiperazin-1-yl)phenyl)pyridin-3-yl)-3,4-dihydro-2,7-naphthyridin-1(2H)-one]

The next lines start with the compound.

Row | Compound | IC50 [1] | IC50 (Lck (h))
14 | Nc1nc(F)c(-c2ccc(N3CCS(=O)(=O)CC3)cc2)cc1-c1cc(F)c2c(c1)CCNC2=O [I-359, 6-(2-amino-5-(4-(1,1-dioxidothiomorpholino)phenyl)-6-fluoropyridin-3-yl)-8-fluoro-3,4-dihydroisoquinolin-1(2H)-one] | 0.1 to 10 nM | > 1000 nM
15 | CC(C)N1CCN(c2ccc(-c3cc(-c4ccc5c(=O)[nH]ccc5c4)c(N)nc3F)cc2)CC1 [I-364, 6-(2-amino-6-fluoro-5-(4-(4-isopropylpiperazin-1-yl)phenyl)pyridin-3-yl)isoquinolin-1(2H)-one] | 0.1 to 10 nM | > 1000 nM
16 | Nc1nc(F)c(-c2ccc(C3CCOCC3)c([C@@H]3CCCN3)c2)cc1-c1ccc2c(c1)CCNC2=O [I-367, (S)-6-(2-amino-6-fluoro-5-(3-(pyrrolidin-2-yl)-4-(tetrahydro-2H-pyran-4-yl)phenyl)pyridin-3-yl)-3,4-dihydroisoquinolin-1(2H)-one] | 0.1 to 10 nM | 101 to 1000 nM
17 | Nc1nc(F)c(-c2ccc(C3CCOCC3)c([C@@H]3CCCN3)c2)cc1-c1cc2c(cc1F)C(=O)NCC2 [I-368, (S)-6-(2-amino-6-fluoro-5-(3-(pyrrolidin-2-yl)-4-(tetrahydro-2H-pyran-4-yl)phenyl)pyridin-3-yl)-7-fluoro-3,4-dihydroisoquinolin-1(2H)-one] | 0.1 to 10 nM | 11 to 100 nM
18 | CC(C)N1CCN(c2ccc(-c3cc(-c4cc5cc[nH]c(=O)c5cc4F)c(N)nc3F)cc2)CC1 [I-373, 6-(2-amino-6-fluoro-5-(4-(4-isopropylpiperazin-1-yl)phenyl)pyridin-3-yl)-7-fluoroisoquinolin-1(2H)-one] | 0.1 to 10 nM | 11 to 100 nM
19 | Nc1nc(F)c(-c2ccc(N3CCN(CC4CC4)CC3)cc2)cc1-c1ccc2c(=O)[nH]ccc2c1 [I-374, 6-(2-amino-5-(4-(4-(cyclopropylmethyl)piper-azin-1-yl)phenyl)-6-fluoropyridin-3-yl)isoquinolin-1(2H)-one] | 0.1 to 10 nM | > 1000 nM
20 | Cc1cc2cc(-c3cc(-c4ccc(N5CCN(C(C)C)CC5)cc4)c(F)nc3N)ccc2c(=O)[nH]1 [I-377, 6-(2-amino-6-fluoro-5-(4-(4-isoporpylpiperazin-1-yl)phenyl)pyridin-3-yl)-3-methylisoquinolin-1(2H)-one] | 0.1 to 10 nM | 101 to 1000 nM
21 | Cc1c[nH]c(=O)c2ccc(-c3cc(-c4ccc(N5CCN(C(C)C)CC5)cc4)c(F)nc3N)cc12 [I-378, 6-(2-amino-6-fluoro-5-(4-(4-isopropylpiperazin-1-yl)phenyl)pyridin-3-yl)-4-methylisoquinolin-1(2H)-one] | 0.1 to 10 nM | > 1000 nM
22 | CC(C)N1CCN(c2ccc(-c3cc(-c4ccc5c(=O)[nH]cc(F)c5c4)c(N)nc3F)cc2)CC1 [I-379, 6-(2-amino-6-fluoro-5-(4-(4-isopropylpiperazin-1-yl)phenyl)pyridin-3-yl)-4-fluoroisoquinolin-1(2H)-one] | 0.1 to 10 nM | > 1000 nM
23 | Cc1cc2cc(-c3cc(-c4ccc(N5CCN(C(C)C)CC5)cc4)c(F)nc3N)cc(F)c2c(=O)[nH]1 [I-380, 6-(2-amino-6-fluoro-5-(4-(4-isopropylpiperazin-1-yl)phenyl)pyridin-3-yl)-8-fluoro-3-methylisoquinolin-1(2H)-one] | 0.1 to 10 nM | > 1000 nM
24 | Nc1nc(F)c(-c2ccc(N3CCN(CCC4CC4)CC3)cc2)cc1-c1cc(F)c2c(c1)CCNC2=O [I-384, 6-(2-amino-5-(4-(4-(2-cyclopropylethyl)piperazin-1-yl)phenyl)-6-fluoropyridin-3-yl)-8-fluoro-3,4-dihydroisoquinolin-1(2H)-one] | 0.1 to 10 nM | 101 to 1000 nM
25 | C[C@H](C1CC1)N1CCN(c2ccc(-c3cc(-c4cc(F)c5c(c4)CCNC5=O)c(N)nc3F)cc2)CC1 [I-390, (R)-6-(2-amino-5-(4-(4-(1-cyclopropylethyl)piperazin-1-yl)phenyl)-6-fluoropyridin-3-yl)-8-fluoro-3,4-dihydroisoquinolin-1(2H)-one] | 0.1 to 10 nM | 101 to 1000 nM
26 | C[C@H](C1CC1)N1CCN(c2ccc(-c3cc(-c4cc(F)c5c(=O)[nH]ccc5c4)c(N)nc3F)cc2)CC1 [I-391, (R)-6-(2-amino-5-(4-(4-(1-cyclopropylethyl)piperazin-1-yl)phenyl)-6-fluoropyridin-3-yl)-8-fluoroisoquinolin-1(2H)-one] | 0.1 to 10 nM | 101 to 1000 nM
27 | Nc1nc(F)c(-c2ccc(N3CCOCC3)cc2)cc1-c1cc(F)c2c(=O)[nH]ccc2c1 [I-396, 6-(2-amino-6-fluoro-5-(4-morpholinophenyl)pyridin-3-yl)-8-fluoroisoquinolin-1(2H)-one] | 0.1 to 10 nM | > 1000 nM
